Assay results reported in patent US8293681B2, “Seed treatment agent and method for protecting plant” (Sumitomo Chemical Company, Ltd., priority 2008, dated 2012).

How the values were obtained:
[1] = test system: root rot on pea (Fusarium solani f. sp. pisi); assay: Test Example 1: seed treatment of pea, control of root rot; type: in vivo; details: pea seeds, 10 gai/100 kg seed
Description: (§1) 10 μl of a dimethylsulphoxide solution of the compound (1b) and 10 g of pea (Waiseiakabanakinusaya) seeds were put in a 50 ml tube and mixed to allow the compound (1b) to stick to the surface of the seeds and then the mixture was allowed to stand still overnight to obtain treated seeds of the present invention. A plastic pot was filled with sandy soil, and the treated seeds of the present invention were disseminated. Then the seeds were covered with sandy soil, which had been mixed with a bran medium on which root rot on pea (Fusarium solani f. sp. pisi) had been allowed to grow and the peas were grown in a greenhouse of from 22 to 24° C. for six days while sprinkling water appropriately. A spore suspension of root rot on pea was perfused on the root of the seedlings for inoculation and the peas were allowed to grow in a greenhouse for further six days and the control effect was checked.
Besides, the incidence of disease was also checked in the case of seeds without the treatment with the agent in order to calculate the control value.
(§2) The incidence of disease was calculated by Equation 1 and the control value was calculated by Equation 2 based on the incidence of disease.
Incidence of disease=(Number of no budding seeds and number of seedlings in which development of disease was observed)×100/(Number of total disseminated seeds) “Equation 1” Control value=100×(A−B)/A “Equation 2” […]

rice 'Bakanae' disease = assay: Test Example 2: immersion of unhulled rice seeds affected with rice 'Bakanae' disease; type: in vivo, Gibberella fujikuroi; design: key to Incidence of disease: % of seedlings diseased: diseased×100/total seedlings; key to Control value: 100×(A−B)/A, from incidence of disease (untreated A, treated B); details: rice seeds immersed 24 hours; for Incidence of disease: untreated 19.2
Description: Incidence of disease=(Number of no budding seeds and number of seedlings in which development of disease was observed)×100/(Number of total disseminated seeds) “Equation 1” Control value=100×(A−B)/A “Equation 2” The flowable of the compound (1a) and the flowable of the compound (1b) were diluted with water to prepare an agent solution containing the compound (1a) or compound (1b). Unhulled rice seeds (Tanginbozu) affected with rice ‘Bakanae’ disease was immersed in the agent solution for 24 hours and then the unhulled rice seeds were taken out of the agent solution and air dried to obtain treated seeds. The treated seeds were immersed in water at 12° C. for 4 days and subsequently in water at 30° C. overnight. A plastic pot was filled with sandy soil, and the treated seeds were disseminated and allowed to grow in a greenhouse at 26° C. for 23 days to investigate the control effect. Besides, the incidence of disease was also checked in the case of seeds without the treatment with the agent in order to calculate the control value. The incidence of disease was calculated by Equation 3 and the control value was calculated based on the incidence of disease by Equation 2. Incidence of disease=(Number of seedlings in which development of disease was observed)×100/(Number of total seedlings) “Equation 3”

[2] = test system: root rot on pea (Fusarium solani f. sp. pisi); assay: Test Example 3: seed treatment of pea, control of root rot, with reference compounds; type: in vivo; design: key to Incidence of disease: % = (non-budding seeds + diseased seedlings)×100/total seeds; key to Control value: control value = 100×(A−B)/A, A = untreated, B = treated incidence; details: pea seeds; for Incidence of disease: untreated 53
Description: Incidence of disease=(Number of no budding seeds and number of seedlings in which development of disease was observed)×100/(Number of total disseminated seeds) “Equation 1” Control value=100×(A−B)/A “Equation 2”
as §1, with “of the compound (1a) or compound (1b)” for “of the compound (1b)”, “allow the compound (1a) or compound (1b)” for “allow the compound (1b)”
Besides, the incidence of disease was also checked in the case of seeds without the treatment with the agent in order to calculate the control value. Also, 2-[2-(2-methyl-phenoxymethyl)-phenyl]-2-methoxy-N-methyl-acetamide, which is described in International Publication WO 95/27,693 and hereinafter referred to as compound A, and 2-[2-(2-chloro-5-methyl-phenoxymethyl)-phenyl]-2-methoxy-N-methyl-acetamide, which is described in International Publication WO 96/07,633 and hereinafter referred to as compound B, were used as reference compounds.
as §2

Compound | Control value [1] | Incidence of disease ([1]; untreated 33) | Control value (rice 'Bakanae' disease; 62.5 ppm) | Incidence of disease (rice 'Bakanae' disease; 62.5 ppm) | Control value (rice 'Bakanae' disease; 125 ppm) | Incidence of disease (rice 'Bakanae' disease; 125 ppm) | Control value (rice 'Bakanae' disease; 500 ppm) | Incidence of disease (rice 'Bakanae' disease; 500 ppm) | Control value (rice 'Bakanae' disease; 2000 ppm) | Incidence of disease (rice 'Bakanae' disease; 2000 ppm) | Control value ([2]; 2.5 gai/100 kg seed) | Incidence of disease ([2]; 2.5 gai/100 kg seed) | Control value ([2]; 10 gai/100 kg seed) | Incidence of disease ([2]; 10 gai/100 kg seed)
CNC(=O)C(OC)c1ccccc1COc1cc(C)ccc1C (racemic) [Compound (1b)] | 100 | 0 | 95 | 0.9 | 93 | 1.4 | 92 | 1.6 | 93 | 1.3 | 81 | 10 | 100 | 0
CNC(=O)[C@H](OC)c1ccccc1COc1cc(C)ccc1C [Compound (1a)] |  |  |  |  |  |  |  |  |  |  | 97 | 4 | 100 | 0
CNC(=O)C(OC)c1ccccc1COc1ccccc1C (centres unmarked) [Compound A, 2-[2-(2-methyl-phenoxymethyl)-phenyl]-2-methoxy-N-methyl-acetamide, reference compound] |  |  |  |  |  |  |  |  |  |  | 57 | 23 | 87 | 7
CNC(=O)C(OC)c1ccccc1COc1cc(C)ccc1Cl (centres unmarked) [Compound B, 2-[2-(2-chloro-5-methyl-phenoxymethyl)-phenyl]-2-methoxy-N-methyl-acetamide, reference compound] |  |  |  |  |  |  |  |  |  |  | 62 | 20 | 81 | 10
